# In ChEMBL document CHEMBL1139947, “Bridged androstenediol analogs as ER-beta selective SERMs” (Bioorg Med Chem Lett, 2007):
# Experiments:
# [1] = target: T1, Estrogen receptor (Homo sapiens, UniProt P03372)
# T1 sequence (P03372 whole entry): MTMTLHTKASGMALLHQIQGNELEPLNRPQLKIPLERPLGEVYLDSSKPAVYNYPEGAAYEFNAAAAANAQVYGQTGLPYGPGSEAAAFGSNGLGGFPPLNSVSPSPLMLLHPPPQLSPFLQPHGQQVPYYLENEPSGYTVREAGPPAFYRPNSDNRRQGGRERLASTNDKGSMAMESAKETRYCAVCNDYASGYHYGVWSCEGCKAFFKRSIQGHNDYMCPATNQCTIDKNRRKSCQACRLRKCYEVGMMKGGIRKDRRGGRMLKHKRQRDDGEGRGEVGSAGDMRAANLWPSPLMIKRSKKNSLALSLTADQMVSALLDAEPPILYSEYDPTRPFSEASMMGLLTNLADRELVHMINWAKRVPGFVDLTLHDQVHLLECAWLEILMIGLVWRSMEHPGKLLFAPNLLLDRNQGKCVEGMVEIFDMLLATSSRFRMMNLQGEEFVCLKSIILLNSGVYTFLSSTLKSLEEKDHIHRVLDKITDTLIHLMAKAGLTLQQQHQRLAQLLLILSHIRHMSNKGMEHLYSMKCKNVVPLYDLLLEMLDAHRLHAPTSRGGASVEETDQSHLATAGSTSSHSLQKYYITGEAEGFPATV
# Description: Binding affinity to human recombinant ERalpha by scintillation proximity assay
# [2] = target: T2, Estrogen receptor beta (Homo sapiens, UniProt Q92731)
# Description: Agonist activity at human recombinant ERbeta expressed in HEK293 cells by transactivation assay
# [3] = target: T1, Estrogen receptor; remark: listed apart in the source
# Description: Agonist activity at human recombinant ERalpha expressed in HEK293 cells by transactivation assay
# [4] = target: T2, Estrogen receptor beta; remark: listed apart in the source
# Description: Binding affinity to human recombinant ERbeta by scintillation proximity assay
# [5] = target: T3, Androgen receptor (Homo sapiens, UniProt P10275)
# T3 sequence (P10275 whole entry): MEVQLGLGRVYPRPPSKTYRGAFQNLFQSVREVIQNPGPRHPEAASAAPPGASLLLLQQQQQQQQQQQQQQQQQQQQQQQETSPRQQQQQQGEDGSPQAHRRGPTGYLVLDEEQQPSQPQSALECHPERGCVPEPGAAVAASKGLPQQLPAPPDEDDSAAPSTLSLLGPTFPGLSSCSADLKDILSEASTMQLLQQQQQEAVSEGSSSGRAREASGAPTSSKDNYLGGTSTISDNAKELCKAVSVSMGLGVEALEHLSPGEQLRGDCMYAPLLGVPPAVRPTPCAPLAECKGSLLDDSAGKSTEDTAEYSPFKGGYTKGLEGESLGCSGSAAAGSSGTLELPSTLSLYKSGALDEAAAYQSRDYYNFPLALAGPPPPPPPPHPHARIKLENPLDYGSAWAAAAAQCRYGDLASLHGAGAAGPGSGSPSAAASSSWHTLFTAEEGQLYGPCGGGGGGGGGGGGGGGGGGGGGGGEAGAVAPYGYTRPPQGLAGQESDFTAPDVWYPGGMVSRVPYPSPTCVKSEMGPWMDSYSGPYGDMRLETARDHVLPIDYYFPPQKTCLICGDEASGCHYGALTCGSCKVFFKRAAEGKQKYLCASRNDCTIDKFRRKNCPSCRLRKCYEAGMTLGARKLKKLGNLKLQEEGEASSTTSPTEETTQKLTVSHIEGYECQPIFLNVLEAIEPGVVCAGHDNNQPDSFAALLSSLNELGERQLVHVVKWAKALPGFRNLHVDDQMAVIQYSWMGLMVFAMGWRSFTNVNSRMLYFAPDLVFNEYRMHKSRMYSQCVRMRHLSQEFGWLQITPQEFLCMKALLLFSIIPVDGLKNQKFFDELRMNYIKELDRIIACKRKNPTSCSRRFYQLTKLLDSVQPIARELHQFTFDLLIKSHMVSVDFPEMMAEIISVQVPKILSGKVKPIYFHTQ
# Description: Binding affinity to androgen receptor
# T2 sequence (Q92731 whole entry): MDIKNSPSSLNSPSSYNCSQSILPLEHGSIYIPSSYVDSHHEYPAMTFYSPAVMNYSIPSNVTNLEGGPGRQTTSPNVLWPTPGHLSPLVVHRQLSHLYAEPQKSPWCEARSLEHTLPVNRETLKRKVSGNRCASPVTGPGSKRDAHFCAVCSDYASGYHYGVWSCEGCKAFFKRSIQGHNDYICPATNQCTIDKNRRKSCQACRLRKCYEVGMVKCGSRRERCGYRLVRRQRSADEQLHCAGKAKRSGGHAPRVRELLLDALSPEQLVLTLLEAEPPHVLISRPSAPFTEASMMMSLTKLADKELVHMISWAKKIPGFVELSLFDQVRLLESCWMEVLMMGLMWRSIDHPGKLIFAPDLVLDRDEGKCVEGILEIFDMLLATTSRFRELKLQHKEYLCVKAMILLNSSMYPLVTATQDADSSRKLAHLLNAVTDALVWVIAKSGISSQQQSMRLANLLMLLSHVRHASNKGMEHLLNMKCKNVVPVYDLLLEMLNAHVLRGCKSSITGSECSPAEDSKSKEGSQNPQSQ
Structure (SMILES),IC50 [1],EC50 [2],EC50 [3],IC50 [4],IC50 [5]
C[C@]12CC[C@H]3[C@@H](CC=C4[C@H]5CC[C@]43CC[C@@H]5O)[C@@H]1CC[C@@H]2O,0.317 µM,28 nM,44 nM,50 nM,1380 nM
C[C@]12CC[C@H]3[C@@H](CC=C4[C@H]5CC[C@]43CC[C@H]5O)[C@@H]1CC[C@@H]2O,8.13 µM,198 nM,435 nM,854 nM,1120 nM
C[C@]12CC[C@H]3[C@@H](CC=C4[C@@H]5C(=O)CC[C@@]43C[C@H]5O)[C@@H]1CC[C@@H]2O,> 10 µM,> 1000 nM,> 1000 nM,> 10000 nM,> 1000 nM
C[C@]12CC[C@H]3[C@@H](CC=C4[C@@H]5C(=O)CC[C@@]43C[C@@H]5O)[C@@H]1CC[C@@H]2O,> 10 µM,> 1000 nM,> 1000 nM,> 10000 nM,> 1000 nM
C[C@]12CC[C@H]3[C@@H](CC=C4C[C@@H]5CC[C@@]43CC(=O)O5)[C@@H]1CC[C@@H]2O,> 10 µM,> 1000 nM,> 1000 nM,> 10000 nM,> 1000 nM
C=C[C@]12CC[C@H](O)CC1=CC[C@H]1[C@@H]3CC[C@H](O)[C@@]3(C)CC[C@@H]12,2.24 µM,4 nM,980 nM,–,–
C/C=C\[C@]12CC[C@H](O)CC1=CC[C@H]1[C@@H]3CC[C@H](O)[C@@]3(C)CC[C@@H]12,1.96 µM,21 nM,344 nM,16 nM,718 nM
C=C[C@]12CCC(=O)C=C1CC[C@H]1[C@@H]3CC[C@H](O)[C@@]3(C)CC[C@@H]12,> 10 µM,–,> 1000 nM,–,–
C[C@]12CC[C@H]3[C@@H](CC=C4[C@H]5CC=C[C@]43CC[C@@H]5O)[C@@H]1CC[C@@H]2O,2.24 µM,132 nM,4890 nM,157 nM,85 nM
CC[C@]12CC[C@H](O)CC1=CC[C@@H]1[C@@H]2CC[C@]2(C)[C@@H](O)CC[C@@H]12,2.33 µM,–,–,16 nM,88 nM
C=CC[C@@H]1C2=CC[C@H]3[C@@H]4CC[C@H](O)[C@@]4(C)CC[C@@H]3[C@@]2(C=C)CC[C@@H]1O,> 10 µM,> 1000 nM,> 1000 nM,3020 nM,15 nM
C[C@]12CC[C@H]3[C@@H](CC[C@H]4[C@H]5CCC[C@]43CC[C@@H]5O)[C@@H]1CC[C@@H]2O,4.99 µM,219 nM,1300 nM,322 nM,68 nM
C[C@]12CC[C@H]3[C@@H](CC=C4C[C@@H]5CC[C@@]43CCO5)[C@@H]1CC[C@@H]2O,> 10 µM,440 nM,> 1000 nM,> 10000 nM,710 nM
C[C@]12CC[C@H]3[C@@H](CC=C4[C@H]5CC[C@]43CCC5=O)[C@@H]1CC[C@@H]2O,> 10 µM,86 nM,407 nM,1460 nM,–
C[C@]12CC[C@H]3[C@@H](CC4C5=CC(=O)CC[C@@]53C[C@H]4O)[C@@H]1CC[C@@H]2O,> 10 µM,> 1000 nM,> 1000 nM,> 10000 nM,> 1000 nM
